# What was measured:
# SOLNI (black nightshade) [1] = assay: Pre-emergence herbicidal activity, warm season; type: in vivo, Solanum nigrum; settings: GR80 = lowest tested rate (300, 100, 30, 10 g/ha) with 80% or greater inhibition; approx. 14 days after treating; 30/21° C.
# Procedure, shortened: (§1)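 GR80 values derive from percent inhibition relative to untreated plants, read roughly 14 days after sowing and pre-emergence soil-surface treatment (compound in 50:50 acetone/water; rates typically 10, 30, 100, 300 g/ha). Warm-season weeds grew at 30/21° C day/night, cool-season ones at 18/13° C; an asterisk marks activity without reaching 80% at the highest rate.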
# [2] = test system: CHEAL (common lambsquarters); assay: Pre-emergence herbicidal activity, warm season; type: in vivo, Chenopodium album; settings: GR80 = lowest tested rate (300, 100, 30, 10 g/ha) with 80% or greater inhibition; approx. 14 days after treating; 30/21° C.
# Procedure, shortened: as §1
# SETFA (giant foxtail) [3] = assay: Pre-emergence herbicidal activity, warm season; type: in vivo, Setaria faberi; settings: GR80 = lowest tested rate (300, 100, 30, 10 g/ha) with 80% or greater inhibition; approx. 14 days after treating; 30/21° C.
# Procedure, shortened: as §1
# [4] = test system: GALAP (catchweed bedstraw); assay: Pre-emergence herbicidal activity, cool season; type: in vivo, Galium aparine; settings: lowest tested rate with 80% or greater inhibition; rates 300, 100, 30, 10 g/ha; about 14 days
# Procedure, shortened: as §1
# [5] = test system: LAMPU (purple deadnettle); assay: Pre-emergence herbicidal activity, cool season; type: in vivo, Lamium purpureum; settings: lowest tested rate with 80% or greater inhibition; rates 300, 100, 30, 10 g/ha; about 14 days
# Procedure, shortened: as §1
# ABUTH (velvetleaf) = assay: Pre-plant incorporated (PPI) herbicidal activity, warm season; type: in vivo, Abutilon theophrasti; settings: for Percent inhibition ABUTH: PPI application
# Procedure, shortened: (§2)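 Incorporation into cover soil: a known compound amount, dissolved or suspended in organic solvent, was sprayed onto it and mixed before layering over sown seeds. Plants grew under greenhouse conditions (30/21° C warm season; 18/13° C cool season, greenhouse or growth chamber). Rated ~14 days later as % inhibition.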
# SOLNI (black nightshade) [6] = assay: as above; type: in vivo, Solanum nigrum; settings: for Percent inhibition SOLNI: PPI application
# Procedure, shortened: as §2
# SETFA (giant foxtail) [7] = assay: as above; type: in vivo, Setaria faberi; settings: for Percent inhibition SETFA: PPI application
# Procedure, shortened: as §2
# SINAR (wild mustard) = assay: Pre-plant incorporated (PPI) herbicidal activity, cool season; type: in vivo, Sinapis arvensis; settings: for Percent inhibition SINAR: weed, PPI application
# Procedure, shortened: as §2
# BROTE (downy brome) = assay: as above; type: in vivo, Bromus tectorum; settings: for Percent inhibition BROTE: weed, PPI application
# Procedure, shortened: as §2
# oilseed rape (BRSNS) = assay: Selectivity test, PPI, cool season crop; type: in vivo, Brassica napus; settings: PPI application
# Procedure, shortened: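 Percent inhibition relative to untreated controls, assessed roughly 14 days post-planting. Seeds were covered with a soil layer into which solvent-borne compound had been sprayed and mixed. Plants were then grown at 30/21° C. (warm season) or 18/13° C. (cool season) day/night regimes.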
# [8] = pre-plant incorporated, GR80 = lowest tested rate with 80% or greater inhibition, approx. 14 days after treating, 30/21° C.
# [9] = pre-plant incorporated, lowest tested rate with 80% or greater inhibition, about 14 days
SMILES,Pre-emergence activity (GR80) SOLNI (SOLNI (black nightshade) [1]) [g/ha],Pre-emergence activity (GR80) CHEAL [2] [g/ha],Pre-emergence activity (GR80) SETFA (SETFA (giant foxtail) [3]),"Pre-emergence activity GR80, GALAP [4]","Pre-emergence activity GR80, LAMPU [5] [g/ha]",Percent inhibition ABUTH (ABUTH (velvetleaf); 10 g/ha) [%],Percent inhibition ABUTH (ABUTH (velvetleaf); 30 g/ha) [%],Percent inhibition ABUTH (ABUTH (velvetleaf); 100 g/ha) [%],Percent inhibition ABUTH (ABUTH (velvetleaf); 300 g/ha) [%],Percent inhibition ABUTH (ABUTH (velvetleaf); 900 g/ha) [%],Percent inhibition SOLNI (SOLNI (black nightshade) [6]; 10 g/ha) [%],Percent inhibition SOLNI (SOLNI (black nightshade) [6]; 30 g/ha) [%],Percent inhibition SOLNI (SOLNI (black nightshade) [6]; 100 g/ha) [%],Percent inhibition SOLNI (SOLNI (black nightshade) [6]; 300 g/ha) [%],Percent inhibition SOLNI (SOLNI (black nightshade) [6]; 900 g/ha) [%],Percent inhibition SETFA (SETFA (giant foxtail) [7]; 10 g/ha) [%],Percent inhibition SETFA (SETFA (giant foxtail) [7]; 30 g/ha) [%],Percent inhibition SETFA (SETFA (giant foxtail) [7]; 100 g/ha) [%],Percent inhibition SETFA (SETFA (giant foxtail) [7]; 300 g/ha) [%],Percent inhibition SETFA (SETFA (giant foxtail) [7]; 900 g/ha) [%],also measured
CCN(CC)C(=O)n1cnc(S(=O)(=O)C(F)(F)SCc2ccccc2)n1 [Example 10],300,300,100 g/ha,[empty],100,0,0,0,30,50,20,60,100,80,100,0,60,80,100,100,Percent inhibition SINAR (SINAR (wild mustard); 10 g/ha): 0%; Percent inhibition SINAR (SINAR (wild mustard); 30 g/ha): 90%; Percent inhibition SINAR (SINAR (wild mustard); 100 g/ha): 100%; Percent inhibition SINAR (SINAR (wild mustard); 300 g/ha): 80%; Percent inhibition SINAR (SINAR (wild mustard); 900 g/ha): 100%; Percent inhibition BROTE (BROTE (downy brome); 10 g/ha): 0%; Percent inhibition BROTE (BROTE (downy brome); 30 g/ha): 0%; Percent inhibition BROTE (BROTE (downy brome); 100 g/ha): 10%; Percent inhibition BROTE (BROTE (downy brome); 300 g/ha): 35%; Percent inhibition BROTE (BROTE (downy brome); 900 g/ha): 60%; Percent inhibition BRSNS (oilseed rape (BRSNS); 10 g/ha): 0%; Percent inhibition BRSNS (oilseed rape (BRSNS); 30 g/ha): 0%; Percent inhibition BRSNS (oilseed rape (BRSNS); 100 g/ha): 0%; Percent inhibition BRSNS (oilseed rape (BRSNS); 300 g/ha): 50%; Percent inhibition BRSNS (oilseed rape (BRSNS); 900 g/ha): 95%
CCN(CC)C(=O)n1cnc(S(=O)(=O)C(F)(F)SCCOC)n1 [Example 13],300,300,"* (activity observed, at least at highest rate, but <80% inhibition)",100 g/ha,100,0,0,0,20,85,0,30,60,95,100,0,99,90,100,100,"PPI activity (GR80) ABUTH (ABUTH (velvetleaf); [8]): 100 g/ha; PPI activity (GR80) SOLNI (SOLNI (black nightshade) [6]; [8]): 100 g/ha; PPI activity GR80, SETFA (SETFA (giant foxtail) [7]; [9]): 30 g/ha; PPI activity GR80, SINAR (SINAR (wild mustard); [9]): [empty]; Percent inhibition SINAR (SINAR (wild mustard); 10 g/ha): 70%; Percent inhibition SINAR (SINAR (wild mustard); 30 g/ha): 100%; Percent inhibition SINAR (SINAR (wild mustard); 100 g/ha): 100%; Percent inhibition SINAR (SINAR (wild mustard); 900 g/ha): 100%; PPI activity GR80, BROTE (BROTE (downy brome); [9]): * (activity observed, at least at highest rate, but <80% inhibition); Percent inhibition BROTE (BROTE (downy brome); 10 g/ha): 0%; Percent inhibition BROTE (BROTE (downy brome); 30 g/ha): 0%; Percent inhibition BROTE (BROTE (downy brome); 100 g/ha): 10%; Percent inhibition BROTE (BROTE (downy brome); 300 g/ha): 20%; Percent inhibition BROTE (BROTE (downy brome); 900 g/ha): 85%; Percent inhibition BRSNS (oilseed rape (BRSNS); 10 g/ha): 0%; Percent inhibition BRSNS (oilseed rape (BRSNS); 30 g/ha): 0%; Percent inhibition BRSNS (oilseed rape (BRSNS); 100 g/ha): 0%; Percent inhibition BRSNS (oilseed rape (BRSNS); 300 g/ha): 70%; Percent inhibition BRSNS (oilseed rape (BRSNS); 900 g/ha): 30%"

# Reference: patent US6461997B1, “Triazole sulfones having herbicidal activity” (Monsanto Technology LLC, priority 1999, dated 2002)
